Data from US20260355168A1, “COMPOSITIONS AND METHODS FOR TREATING AND DETECTING CANCER” (CASE WESTERN RESERVE UNIVERSITY, priority 2022, published 2026).
Entries after “also recorded” stand apart in the source; their conditions may differ.

How the values were obtained:
[1] = system: Gli36 cells; experiment: Gli36 scratch wound healing assay; type: cell-based, human; conditions: 100 μM; for Effect on Gli36 migration (scratch wound closure): endpoint 8 h, in words
Protocol: FIGS. 4(A-D) illustrate a histogram and images showing the results of the Gli36 scratch wound assays. Selected inhibitors, activators, and control compounds identified in LN229 and/or U87 scratch wound closure assays were retested at 100 μM for effects on Gli36 migration. A. Histogram showing the normalized migration distance for each treated sample. Data is presented as average % movement±s.e.m, and compound bar codes are shown on the x-axis. The majority of compounds were screened with an n of 2-4. Representative endpoint images of samples treated with DMSO (B) and two priority inhibitors (C and D) are shown. The relative migration distances for each example are shown.
Cells were seeded at a density of 2.7×10^4 cells per well into the internal wells of Incuyte1 Imagelock 96-well plates (Essen BioScience Inc., Ann Arbor, MI) and cultured overnight to form monolayers. Monolayers were wounded with an IncuCyte1 96-well Woundmaker Tool per the manufacturer's instructions. The outer wells were filled with PBS to buffer edge effects, and then the wounded monolayers were cultured in 100 μl of fresh media with compounds or DMSO (2×replicates at 100 μM or 1%, respectively) at 37 °C and 5% CO2. Images were captured every 4 hrs. using an Incucyte live cell imaging system equipped with the Scratch Wound Module. Scratch wound widths were calculated, per the manufacturer's instructions, at TO and at endpoint (typically T12 for LN229 and U87 cells and T8 for Gli36), which was taken as the last timepoint before wound closure. The cell migration distance was calculated from scratch widths [(T0Width−TendpointWidth)/2] and normalized to the average distance migrated by the DMSO controls. Values are presented as average percentages±standard errors of the means (s.e.m.). The majority of compounds were screened with an n of two, but the n for priority hits ranges from 2-6.
All inhibitors identified in the primary screens, a selection of U87-specific activators, and some apparently inert control compounds were rescreened in scratch wound assays using an additional glioma cell line (Gli36) (FIG. 4A).

[2] = system: LN229 cells; experiment: LN229 glioma sphere formation and growth assay; type: cell-based, human; conditions: for Effect on LN229 sphere formation: day 1; for Effect on LN229 sphere formation / Effect on LN229 sphere growth: in words
Protocol: FIGS. 5(A-E) illustrate a histogram and images showing the results of the LN229 sphere formation and growth assays. Selected inhibitors, activators, and control compounds identified in LN229 and/or U87 scratch wound closure assays were retested at 100 μM in a secondary assay for glioma cell (LN229) sphere formation and growth. A. Histogram showing the effects of the indicated compounds on sphere formation. On day 1, sphere footprint areas were determined and normalized to the average footprint area of the unblinded vehicle-treated controls. On day 1, a larger footprint area indicates inhibition of aggregation. B. Histogram showing the effects of the indicated compounds on sphere growth. On day 7, the changes in sphere footprint areas were calculated and normalized to the average size change of the unblinded vehicle-treated controls. On day 7, a smaller value indicates reduced growth. […] Data is presented as percentages±s.e.m. of 2-4 replicates. Representative images of samples treated with DMSO (C) and two priority inhibitors (D and E) are shown. Relative day 1 footprint areas and day 7 growth measurements are indicated for each example.
FIGS. 15(A-D) illustrate a histogram and images of titration of selected compounds on LN229 sphere formation and growth. LN229 cells were plated onto non-adherent surfaces and treated with the indicated compounds at 100, 50, and 25 μM. A. On day 1, sphere footprint areas were determined and normalized to the average footprint area of the unblinded vehicle-treated controls. On day 1, a larger foot-print area indicates inhibition of aggregation. B. On day 7, the changes in sphere footprint areas were calculated and normalized to the average size change of the unblinded vehicle-treated controls. On day 7, a smaller value indicates reduced growth. […] Data is presented as percentages±s.e.m. The initial test at 100 μM and the follow-up at that dose with titration is shown. Each bar is the average of 2 replicates. Representative day 1 (C) and day 7 (D) images of samples treated with two priority inhibitors are shown. Relative day 1 sphere footprint areas and day 7 growth for each example are indicated.
Cells were seeded at a density of 7500 cells per well into the internal wells of 96-well plates coated with 0.75% (wt/vol) PVA as previously described. Compounds were added (2×replicates per treatment) at the indicated final concentrations, and control wells were treated with matching concentrations of DMSO. The external wells of the plates were filled with PBS to buffer against edge effects, and the cells were incubated at 37 °C and 5% CO2 for 7 days. A Leica CTR6500 microscope fitted with an automated stage was used to capture brightfield images on day 1 and day 7, and sphere footprint areas were measured using Image J (v1.52a http://imagej.nih.gov/ij) as previously described. To quantify the effects of the compounds on day 1, the footprint areas of the treated wells were normalized to the average area of the matched DMSO control wells. To quantify the effects of the compounds on sphere growth, the change in the sphere footprint areas was calculated ([…]) and then normalized to the average size change of the matched DMSO samples. All values are presented as average percentages±s.e.m.
We tested the effects of twenty-four compounds (11 flagged as inhibitory, 4 as stimulatory, and nine as inert in the initial scratch-wound screen, FIG. 2) on the ability of LN229 cells to mediate cell-cell adhesion and grow in 3D culture on non-adherent surfaces. To quantify sphere formation (FIG. 5A), the footprint areas of aggregates were measured on day 1 and normalized to that of the DMSO control. At this time point, a larger footprint size (>120%) indicates inhibition, i.e., the failure of cells to form a compact aggregate. To quantify sphere growth (FIG. 5B), we calculated the percent changes in sphere footprint areas between day 1 and day 7 and normalized them to that of the DMSO controls.

[3] = system: LN229 cells; experiment: Helix Blue staining of LN229 spheres (cell survival); type: cell-based, human; conditions: 100 μM, 24 h, qualitative
Protocol: (§1) FIG. 17 illustrates images showing the effects of prioritized inhibitors on cell survival. LN229 cells were plated onto non-adherent surfaces and cultured in the presence of the indicated compounds (100 μM). On day 1, spheres were stained with Helix Blue to detect dying cells. Parental Sf9 cells (which lack PTPμ) plated onto tissue culture plastic were also grown in the presence of the indicated compounds and, on day 1, stained with Helix Blue. Three compounds appeared to cause a qualitative increase in staining in LN229 spheres. No compound was toxic to Sf9 cells.
(§2) LN229 cells, plated onto non-adherent surfaces as described above, and parental Sf9 cells (without PTPμ), seeded into 96-well flat bottom tissue culture plates, were treated for 24 h with the indicated compounds (100 μM). The cells and spheres were then treated with 5.5 μM Helix Blue (Biolegend, San Diego, CA) and imaged at 10× on a Leica CTR6500 fluorescence microscope.
(§3) The seven penetrant inhibitors were tested to see if they affected the survival of LN229 spheres and parental Sf9 cells (which lack PTPμ) (FIG. 17).

[4] = system: parental Sf9 cells; experiment: Helix Blue staining of parental Sf9 cells (cell survival); type: cell-based, insect; conditions: 100 μM, 24 h, cells lack PTPμ
Protocol: as §1, §2, §3

Compound | Effect on Gli36 cell morphology in scratch assay [1] | Effect on Gli36 migration (scratch wound closure) [1] | Effect on LN229 sphere formation ([2]; 50 μM) | Effect on LN229 sphere formation ([2]; 100 μM) | Effect on LN229 sphere growth ([2]; 100 μM, day 7) | sphere growth relative to control at 100 µM ([2]; Homo sapiens, LN-229, 168 h, read-out: LN229 sphere growth relative to control (threshold for inhibition), heading: LN229 sphere growth relative to control, 100 μM, day 7) [%] | Effect on LN229 cell survival / cell death [3] | Effect on LN229 sphere growth ([2]; 50 μM, day 7) | minimal effective concentration ([2]; Homo sapiens, LN-229, titration 100, 50, 25 μM, read-out: Lowest dose effective at inhibiting LN229 sphere growth) [µM] | Effect on parental Sf9 cell survival [4]
O=C(NCc1nc(-c2ccncc2)no1)c1ccc(Cl)c(S(=O)(=O)NCc2ccccc2)c1 [Compound 247678791] | did not dramatically affect Gli36 cell morphology | moderate inhibitor | slowed aggregation at 100 and 50 μM | aggregated more slowly than controls; also recorded: slowed aggregation at 100 and 50 μM | grew poorly in 3D culture | < 60 | did not affect LN229 survival |  |  | 
COc1cc(C)ccc1OCC(=O)Nc1nc(-c2c[nH]c(C(N)=O)c2)cs1 [Compound 247678835] | reduced the appearance of processes and cell chains at the scratch edge | strong priority inhibitor | condensation was slowed | failed to compact and formed a mat of cells at the bottom of the well; also recorded: dramatically disrupted sphere formation at 100 μM |  |  | caused a qualitative increase in LN229-cell death; also recorded: induced LN229-cell death in vitro; also recorded: affect the survival of LN229 cells | grew poorly in culture | 50 | did not affect parental Sf9 cells
CCN(C(=O)CN1C(=O)NC(C)(CCC(C)C)C1=O)c1cccc2ccccc12 (stereo not shown) [Compound 247677616] | dramatic effect on Gli36 cell morphology |  |  | completely blocked sphere formation |  |  | caused a qualitative increase in LN229-cell death; also recorded: causing LN229 cell death |  |  | did not affect parental Sf9 cells
